Results from patent US6479251B1, “Colorimetric test for agents that induce mitochondrial dysfunction” (priority 1999, dated 2002).

Assays:
Assay type in all cases: cell-based
[1] = tested on: S. cerevisiae strain YPH499; assay: Colorimetric test: red to white colony colour change on YPD agar after treatment
Method: (§1) FIGS. 1A and 1B show visual color identification of mitochondrial dysfunction. The wild type S. cerevisiae YPH499 was gown in YPD (1% yeast extract, 2% bactopeptone and 2% dextrose) to log phase at 30° C. The log phase culture was centrifuged, resuspended in water containing adriamycin (150 μg/ml) for one hour. Appropriate dilutions of the culture were plated on YPD agar and incubated at 30° C. for 3-4 days. […] FIG. 1B: white colonies from treated cells in FIG. 1A wee replicated on to agar medium containing 2% dextrose (left) and 2% glycerol (right).
The wild type S. cerevisiae YPH499 was grown in YPD to log phase at 30° C. The culture was centrifuged, resuspended in water containing various concentrations of adriamycin as indicated for one hour. Appropriate dilutions of the culture were plated on YPD agar and incubated at 30° C. Colonies were counted after 3-4 days. Values presented are the average of four determinants.
FIGS. 5A, 5B, and 5C show the percentage of white colonies produced after treatment with physical or chemical agents. Exponentially growing cells were treated with various doses of UV (FIG. 5A) or various lengths of time (MMS (FIG. 5B) and H2O2 (FIG. 5C)). For UV treatment appropriate dilutions of culture were plated on YPD agar and exposed to UV using STRATALINKER (Stratagene). For MMS and H2O2 treatments, cells were exposed in liquid YPD medium.
(§2) The yeast S. cerevisiae strain YPH499 (a ura3-52, lys2-801, ade2-101, trpl-63, his3-200, leul-1) was grown in YPD to log phase. Cell were then harvested and suspended in water containing various concentration of adriamycin for one hour. In order to test whether white colonies were defective in mitochondrial function, we transferred the colonies to an agar media containing glycerol (nonfermentable carbon source). Utilization of glycerol by an eukaryotic cell requires intact mitochondrial function (2). […] The number of surviving colonies that were white reached about 30% at 150 μglml concentration.

[2] = tested on: S. cerevisiae strain YPH499; assay: Growth of white colonies on glycerol (nonfermentable carbon source) agar
Method: as §1, §2

[3] = tested on: mitDNA of S. cerevisiae white colonies
Method: FIGS. 3A-3D show mitochondrial genome changes induced by adriamycin. Various white S. cerevisiae colonies produced after treatment with adriamycin were grown to log phase and stained with DAPI, which stains DNA. FIG. 3A: wild type; FIG. 3B: a Rho^0 strain (devoid of mitochondrial genome); FIG. 3C: a representative white cell lacking mitochondrial genome; and FIG. 3D: a representative cell containing mutant mitochondrial DNA.
White S. cerevisiae colonies produced after treatment with physical or chemical agents were grown to log phase and stained with DAPI. FIG. 6A: Wild type; FIG. 6B: A Rho^0 strain; FIG. 6C: adriamycin; FIG. 6D: hydrogen peroxide; FIG. 6E: UV; FIG. 6F: Methylmethane sulfonate. For FIGS. 6C-F, the cells on the right contains mutant mitDNA and the cell on the left lacks a mitochondrial genome.
DNA was stained with a fluorescent dye, 4,6-diamidino-2-phenylindole (DAPI)(2). […] In this study, a known yeast strain lacking mitDNA (Rho^0) served as a negative control (FIG. 3B, only nuclear DNA is stained).

[4] = tested on: S. cerevisiae diploid cells (white colonies x Rho0); assay: Mating of haploid white colonies with Rho0 strain YPH 500, growth of diploids on glycerol medium; details: a total of 143 diploid cells from white colonies after adriamycin treatment mated with Rho0 (FIG. 4)
Method: FIGS. 4A and 4B show growth comparison of haploid and diploid S. cerevisiae cells. FIG. 4A: Various white colonies produced after treatment with adriamycin were streaked on YP glycerol plates. FIG. 4B: The same white colonies were mated with an opposite mating type strain of yeast lacking mitochondrial DNA on YPD plates. The diploid yeast strains were tested for growth on YP glycerol medium.
The genetic approach employed involved mating haploid white colonies generated after adriamycin treatment (shown in FIG. 2, “a” mating type) with a haploid Rho^0 strain (of opposite mating type “α” YPH 500 (ura3-52, lys2-801, ade2-101, trpl-63, his3-200, leu2-1) lacking mitDNA (3). The diploid cells (a total of 143) were tested for growth on glycerol medium. If the white cells contained a mutation in a nuclear gene affecting the mitochondrial function, it can be expected that diploid cells will grow on glycerol because a nuclear defect can be complemented with Rho^0 (because it contains intact nuclear DNA but lacks mitDNA). […] Together, these studies indicate that adriamycin preferentially damages mitDNA. This preferential damage by adriamycin can result either in complete loss of mitDNA (due to severe damage) and/or mutations in mitDNA (due to minor damage FIG. 3).

COS(C)(=O)=O [MMS, methyl methane sulphonate]
increase in white colonies [1]: did
growth of white colonies on glycerol [2]: do not grow on glycerol
microscopic and genetic tests of white colonies (mitDNA status) ([3]; white colonies obtained after treatment with physical or chemical agents (FIG. 6)): either contained mutant mitDNA or lacked mitDNA at all

OO [H2O2, hydrogen peroxide]
increase in white colonies [1]: did not result in increased white colonies

COc1cccc2c1C(=O)c1c(O)c3c(c(O)c1C2=O)C[C@@](O)(C(=O)CO)C[C@@H]3O[C@H]1C[C@H](N)[C@H](O)[C@H](C)O1 [adriamycin]
growth of diploid cells on glycerol medium [4]: none grew on glycerol medium
number of surviving colonies that were white ([1]; adriamycin 150 μglml in water for one hour, plated on YPD agar, 30° C., 3-4 days): about 30%
white colonies versus dose ([1]; various concentrations of adriamycin in water for one hour (FIG. 2)): increase number of white colonies with increasing dose
growth of randomly chosen white colonies on glycerol plates ([2]; white colonies obtained after adriamycin treatment (FIG. 1B)): none were able to grow
DAPI DNA staining of white colonies (mitDNA present or lost) ([3]; white colonies obtained after adriamycin treatment (FIG. 3)): two types of DNA staining
